From PMC4868058, “A critical role for the Drosophila dopamine D1-like receptor Dop1R2 at the onset of metamorphosis” (BMC Developmental Biology, 2016)
Counter-ions that a name gives are not always drawn.

Experiments:
Dop1R2 [1] = biological target: T1, Dop1R2 (Drosophila melanogaster, UniProt Q24563); test: CRE-luciferase reporter assay in transfected HEK293 cells; format: cell-based
T1 construct: receptor cDNA in pcDNA1.1, transiently expressed in HEK293 with CRE-luciferase reporter
T1 sequence (Q24563 1-539): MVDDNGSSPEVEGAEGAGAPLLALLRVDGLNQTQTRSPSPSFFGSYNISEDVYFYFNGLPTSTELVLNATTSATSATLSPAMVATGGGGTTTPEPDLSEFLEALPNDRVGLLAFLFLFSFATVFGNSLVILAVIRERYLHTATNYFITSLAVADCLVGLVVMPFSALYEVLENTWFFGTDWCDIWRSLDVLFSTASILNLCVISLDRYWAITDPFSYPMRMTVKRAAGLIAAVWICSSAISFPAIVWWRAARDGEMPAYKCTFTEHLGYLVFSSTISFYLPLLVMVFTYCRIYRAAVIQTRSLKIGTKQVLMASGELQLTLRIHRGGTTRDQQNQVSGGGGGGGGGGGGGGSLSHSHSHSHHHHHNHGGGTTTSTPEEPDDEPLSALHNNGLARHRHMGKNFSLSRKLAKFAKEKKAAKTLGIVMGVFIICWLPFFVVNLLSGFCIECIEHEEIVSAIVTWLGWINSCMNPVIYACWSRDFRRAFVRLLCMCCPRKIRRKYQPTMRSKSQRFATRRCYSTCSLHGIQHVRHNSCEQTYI

Dop1R2 [2] = biological target: T1, Dop1R2; test: as above; format: cell-based; remark: listed apart in the source

EC50 (Dop1R2 [1])	IC50 (Dop1R2 [2])	SMILES
270 nM	–	NCCc1ccc(O)c(O)c1 [dopamine hydrochloride]
–	260 nM	OCCN1CCN(CCC=C2c3ccccc3Sc3ccc(C(F)(F)F)cc32)CC1 [flupenthixol dihydrochloride]
